According to patent US20100063065A1 (Inpharmatica Limited, priority 2005, published 2010):
Counter-ions that a name gives are not always drawn.

Target: T1, PPARδ (Homo sapiens, UniProt Q03181)
T1 construct: fused to amino acids 147-441 of PPARδ downstream of CMV promoter; expressed in transfected cells; host or cells: HEK293 cells, transiently transfected with pFACMV-PPARδ using Fugene
T1 sequence (Q03181 147-441): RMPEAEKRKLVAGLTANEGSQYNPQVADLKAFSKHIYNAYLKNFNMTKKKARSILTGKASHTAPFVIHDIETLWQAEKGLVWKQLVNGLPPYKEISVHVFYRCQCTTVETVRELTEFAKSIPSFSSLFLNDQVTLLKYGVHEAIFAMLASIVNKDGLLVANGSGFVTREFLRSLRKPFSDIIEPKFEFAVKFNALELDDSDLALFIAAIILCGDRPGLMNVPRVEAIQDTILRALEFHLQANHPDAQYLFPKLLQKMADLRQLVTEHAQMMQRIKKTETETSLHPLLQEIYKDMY
Assay: Transactivation assay (PPARδ GAL4 assay) in transiently transfected HEK293 cells
Format: cell-based
Settings: luciferase reporter, Table 2
How it was run: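 HEK293 cells transiently co-transfected with GAL4 DBD (aa 1-147)–PPARδ (aa 147-441) fusion and 5×GAL4-luciferase reporter, then exposed 24 h to compound (final 0-30 μM) in OptiMEM at 37° C. Luminescence read; activity as percent of GW501516 control, EC50 from sigmoidal dose-response fit.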

| Structure (SMILES) | EC50 [nM] |
| --- | --- |
| CCc1cc(C(=O)c2ccc(OC(F)(F)F)c(Cl)c2)c(NC(=O)CN[C@H](C(=O)O)C(C)C)s1 [Example 169, (S)-2-({[3-(3-Chloro-4-trifluoromethoxy-benzoyl)-5-ethyl-thiophen-2-ylcarbamoyl]-methyl}-amino)-3-methyl-butyric acid] | 100 to 1000 |
| CCc1cc(C(=O)c2ccc(Cl)c(Cl)c2)c(NC(=O)CN[C@H](C(=O)O)C(C)C)s1 [Example 170, (S)-2-({[3-(3,4-Dichloro-benzoyl)-5-ethyl-thiophen-2-ylcarbamoyl]-methyl}-amino)-3—methyl-butyric acid] | 100 to 1000 |
| CCc1cc(C(=O)c2ccc(OC(F)(F)F)c(Cl)c2)c(NC(=O)CNC(C)(C)C(=O)O)s1 [Example 171, 2-({[3-(3-Chloro-4-trifluoromethoxy-benzoyl)-5-ethyl-thiophen-2-ylcarbamoyl]-methyl}-amino)-2-methyl-propionic acid] | < 100 |
| CCc1cc(C(=O)c2ccc(OC(F)(F)F)cc2)c(NC(=O)CN2CCC[C@]2(C)C(=O)O)s1 [Example 172, (R)-1-{[5-Ethyl-3-(4-trifluoromethoxy-benzoyl)-thiophen-2-ylcarbamoyl]-methyl}-2-methyl-pyrrolidine-2-carboxylic acid] | 100 to 1000 |
| CCc1cc(C(=O)c2ccc(OC(F)(F)F)cc2)c(NC(=O)CN2CCCC2(C)C(=O)O)s1 (stereo not drawn) [Example 173, 1-{[5-Ethyl-3-(4-trifluoromethoxy-benzoyl)-thiophen-2-ylcarbamoyl]-methyl}-2-methyl-pyrrolidine-2-carboxylic acid] | 100 to 1000 |
| CCc1cc(C(=O)c2ccc(OC(F)(F)F)cc2)c(NC(=O)CC(C)CC(=O)O)s1 (stereo not drawn) [Example 174, 4-[5-Ethyl-3-(4-trifluoromethoxy-benzoyl)-thiophen-2-ylcarbamoyl]-3-methyl-butyric acid] | < 100 |
| CCc1cc(C(=O)c2ccc(OCC(F)(F)F)cc2)c(NC(=O)CSCC(=O)O)s1 [Example 175, ({5-Ethyl-3-[4-(2,2,2-trifluoro-ethoxy)-benzoyl]-thiophen-2-ylcarbamoyl}-methylsulfanyl)-acetic acid] | 100 to 1000 |
| CCc1cc(C(=O)c2ccc(OC(F)(F)F)cc2)c(NC(=O)C2CCCN(CC(=O)O)C2)s1 (stereo not drawn) [Example 176, {3-[5-Ethyl-3-(4-trifluoromethoxy-benzoyl)-thiophen-2-ylcarbamoyl]-piperidin-1-yl}-acetic acid] | 1000 to 30000 |
| CCc1cc(C(=O)c2ccc(OC(F)(F)F)cc2)c(NC(=O)C2CCN(CC(=O)O)CC2)s1 [Example 177, {4-[5-Ethyl-3-(4-trifluoromethoxy-benzoyl)-thiophen-2-ylcarbamoyl]-piperidin-1-yl}-acetic acid] | 1000 to 30000 |
| CCc1cc(C(=O)c2ccc(OC(F)(F)F)cc2)c(NC(=O)CN2[C@@H](C(=O)O)CC[C@@H]2c2ccc(F)cc2)s1 [Example 181, (2R,5R)-1-{[5-Ethyl-3-(4-trifluoromethoxy-benzoyl)-thiophen-2-ylcarbamoyl]-methyl}-5-(4-fluoro-phenyl)-pyrrolidine-2-carboxylic acid] | < 100 |
| CCc1cc(C(=O)c2ccc(OC(F)(F)F)cc2)c(NC(=O)CN2[C@@H](C(=O)O)CC[C@@H]2C)s1 [Example 182, (2R,5S)-1-{[5-Ethyl-3-(4-trifluoromethoxy-benzoyl)-thiophen-2-ylcarbamoyl]-methyl}-5-methyl-pyrrolidine-2-carboxylic acid] | < 100 |
| CCc1cc(C(=O)c2ccc(OC(F)(F)F)cc2)c(NC(=O)CN2[C@@H](CC)CC[C@@H]2C(=O)O)s1 [Example 183, (2R,5S)-5-Ethyl-1-{[5-ethyl-3-(4-trifluoromethoxy-benzoyl)-thiophen-2-ylcarbamoyl]-methyl}-pyrrolidine-2-carboxylic acid] | < 100 |
| CCc1cc(C(=O)c2ccc(OC(F)(F)F)cc2)c(NC(=O)CN2[C@@H](C(=O)O)CC[C@@H]2c2ccccc2)s1 [Example 184, (2R,5R)-1-{[5-Ethyl-3-(4-trifluoromethoxy-benzoyl)-thiophen-2-ylcarbamoyl]-methyl}-5-phenyl-pyrrolidine-2-carboxylic acid] | < 100 |
| CCc1cc(C(=O)c2ccc(OC(F)(F)F)cc2)c(NC(=O)CN2[C@@H](C(=O)O)CC[C@@H]2C(C)C)s1 [Example 185, (2R,5R)-1-{[5-Ethyl-3-(4-trifluoromethoxy-benzoyl)-thiophen-2-ylcarbamoyl]-methyl}-5-isopropyl-pyrrolidine-2-carboxylic acid] | < 100 |
| CCc1cc(C(=O)c2ccc(OC(F)(F)F)cc2)c(NC(=O)C(C)N2[C@@H](C(=O)O)CC[C@@H]2C)s1 (stereo partly drawn) [Example 186, (2R,5S)-1-{1-[5-Ethyl-3-(4-trifluoromethoxy-benzoyl)-thiophen-2-ylcarbamoyl]-ethyl}-5-methyl-pyrrolidine-2-carboxylic acid] | < 100 |
| CCc1cc(C(=O)c2ccc(Cl)cc2)c(NC(=O)CN2[C@@H](C(=O)O)CC[C@@H]2c2ccccc2)s1 [Example 187, (2R,5R)-1-{[3-(4-Chloro-benzoyl)-5-ethyl-thiophen-2-ylcarbamoyl]-methyl}-5-phenyl-pyrrolidine-2-carboxylic acid hydrochloride] | 100 to 1000 |
| O=C(CN1[C@@H](C(=O)O)CC[C@@H]1c1ccccc1)Nc1sc(Cl)cc1C(=O)c1ccc(OC(F)(F)F)cc1 [Example 188, (2R,5R)-1-{[5-Chloro-3-(4-trifluoromethoxy-benzoyl)-thiophen-2-ylcarbamoyl]-methyl}-5-phenyl-pyrrolidine-2-carboxylic acid hydrochloride] | < 100 |
| CCc1cc(C(=O)c2ccc(OC(F)(F)F)cc2)c(NC(=O)CN2CCCC2C(=O)O)s1 (stereo not drawn) [Example 189, 1-{[5-Ethyl-3-(4-trifluoromethoxy-benzoyl)-thiophen-2-ylcarbamoyl]-methyl}-pyrrolidine-2-carboxylic acid] | < 100 |
| CCc1cc(C(=O)c2ccc(OC(F)(F)F)cc2)c(NC(=O)CNC2(C(=O)O)CCCC2)s1 [Example 190, 1-({[5-Ethyl-3-(4-trifluoromethoxy-benzoyl)-thiophen-2-ylcarbamoyl]-methyl}-amino)-cyclopentanecarboxylic acid] | < 100 |
| CCc1cc(C(=O)c2ccc(OC(F)(F)F)cc2)c(NC(=O)CN[C@@H](CC)C(=O)O)s1 [Example 191, (S)-2-({[5-Ethyl-3-(4-trifluoromethoxy-benzoyl)-thiophen-2-ylcarbamoyl]-methyl}-amino)-butyric acid] | 100 to 1000 |
| CCc1cc(C(=O)c2ccc(OC(F)(F)F)cc2)c(NC(=O)CN[C@@](C)(CC)C(=O)O)s1 [Example 192, (S)-2-({[5-Ethyl-3-(4-trifluoromethoxy-benzoyl)-thiophen-2-ylcarbamoyl]-methyl}-amino)-2-methyl-butyric acid] | 100 to 1000 |
| CCc1cc(C(=O)c2ccc(OC(F)(F)F)cc2)c(NC(=O)CCN2CCC[C@@H]2C(=O)O)s1 [Example 193, (R)-1-{2-[5-Ethyl-3-(4-trifluoromethoxy-benzoyl)-thiophen-2-ylcarbamoyl]-ethyl}-pyrrolidine-2-carboxylic acid] | 100 to 1000 |
| CCc1cc(C(=O)c2ccc(OC(F)(F)F)cc2)c(NC(=O)CCSCC(=O)O)s1 [Example 194, {2-[5-Ethyl-3-(4-trifluoromethoxy-benzoyl)-thiophen-2-ylcarbamoyl]-ethylsulfanyl}-acetic acid] | < 100 |
| CCc1cc(C(=O)c2ccc(OC(F)(F)F)cc2)c(NC(=O)[C@H](C)SCC(=O)O)s1 [Example 195, {(S)-1-[5-Ethyl-3-(4-trifluoromethoxy-benzoyl)-thiophen-2-ylcarbamoyl]-ethylsulfanyl}-acetic acid] | < 100 |
| CCc1cc(C(=O)c2ccc(OC(F)(F)F)cc2)c(NC(=O)CN(C)C(C)(C)C(=O)O)s1 [Example 196, 2-({[5-Ethyl-3-(4-trifluoromethoxy-benzoyl)-thiophen-2-ylcarbamoyl]-methyl}-methyl-amino)-2-methyl-propionic acid] | 1000 to 30000 |
| CCc1cc(C(=O)c2ccc(OC(F)(F)F)cc2)c(NC(=O)CN(C)C2(C(=O)O)CC2)s1 [Example 197, 1-({[5-Ethyl-3-(4-trifluoromethoxy-benzoyl)-thiophen-2-ylcarbamoyl]-methyl}-methyl-amino)-cyclopropanecarboxylic acid] | 100 to 1000 |
| CCc1cc(C(=O)c2ccc(OC(F)(F)F)cc2)c(NC(=O)CN(C)[C@@H](C)C(=O)O)s1 [Example 198, (S)-2-({[5-Ethyl-3-(4-trifluoromethoxy-benzoyl)-thiophen-2-ylcarbamoyl]-methyl}-methyl-amino)-propionic acid] | < 100 |
